{"source": "PubChem BioAssay (NCI)", "experiment_in_all_cases": "NCI anticancer screen, dose series, 384-well format", "key": {"CAKI-1 renal": {"system": "CAKI-1 renal"}, "RXF 393 renal": {"system": "RXF 393 renal"}, "HCT-116 colon": {"system": "HCT-116 colon"}, "OVCAR-8 ovarian": {"system": "OVCAR-8 ovarian"}, "K-562 leukemia": {"system": "K-562 leukemia"}, "TK-10 renal": {"system": "TK-10 renal"}, "MALME-3M melanoma": {"system": "MALME-3M melanoma"}, "SF-268 CNS": {"system": "SF-268 CNS"}, "HCT-15 colon": {"system": "HCT-15 colon"}, "KM12 colon": {"system": "KM12 colon"}, "SN12C renal": {"system": "SN12C renal"}, "NCI-H23 lung": {"system": "NCI-H23 lung"}, "MDA-MB-435 melanoma": {"system": "MDA-MB-435 melanoma"}, "786-0 renal": {"system": "786-0 renal"}, "UACC-62 melanoma": {"system": "UACC-62 melanoma"}, "MOLT-4 leukemia": {"system": "MOLT-4 leukemia"}, "A549 NSCLC": {"system": "A549 NSCLC"}, "NCI-H226 lung": {"system": "NCI-H226 lung"}, "HS 578T breast": {"system": "HS 578T breast"}, "OVCAR-3 ovarian": {"system": "OVCAR-3 ovarian"}, "SK-MEL-28 melanoma": {"system": "SK-MEL-28 melanoma"}, "SR leukemia": {"system": "SR leukemia"}, "SK-MEL-5 melanoma": {"system": "SK-MEL-5 melanoma"}, "LOX IMVI melanoma": {"system": "LOX IMVI melanoma"}, "SK-OV-3 ovarian": {"system": "SK-OV-3 ovarian"}, "NCI-H522 lung": {"system": "NCI-H522 lung"}, "OVCAR-4 ovarian": {"system": "OVCAR-4 ovarian"}, "U251 glioblastoma": {"system": "U251 glioblastoma"}, "HL-60(TB) leukemia": {"system": "HL-60(TB) leukemia"}, "IGROV1 ovarian": {"system": "IGROV1 ovarian"}}, "note": "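GI50 = concentration required for 50% inhibition of growth. TGI: total growth inhibition.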", "data": [{"smiles": "C[C@@H]1C[C@H](N)C[C@H](c2ccncc2NC(=O)c2ccc(F)c(-c3c(F)cccc3F)n2)C1", "values": [{"measurement": "TGI", "setting": "CAKI-1 renal", "value": 17.2, "unit": "µM"}, {"measurement": "GI50", "setting": "RXF 393 renal", "value": 3.18, "unit": "µM"}, {"measurement": "TGI", "setting": "RXF 393 renal", "value": 11.9, "unit": "µM"}, {"measurement": "GI50", "setting": "HCT-116 colon", "value": 7.07, "unit": "µM"}, {"measurement": "TGI", "setting": "HCT-116 colon", "value": 19.9, "unit": "µM"}, {"measurement": "GI50", "setting": "OVCAR-8 ovarian", "value": 14.3, "unit": "µM"}, {"measurement": "TGI", "setting": "OVCAR-8 ovarian", "value": 27.5, "unit": "µM"}, {"measurement": "GI50", "setting": "K-562 leukemia", "value": 2.17, "unit": "µM"}, {"measurement": "TGI", "setting": "K-562 leukemia", "value": 10.9, "unit": "µM"}, {"measurement": "GI50", "setting": "TK-10 renal", "value": 12.5, "unit": "µM"}, {"measurement": "TGI", "setting": "TK-10 renal", "value": 25.1, "unit": "µM"}, {"measurement": "GI50", "setting": "MALME-3M melanoma", "value": 1.49, "unit": "µM"}, {"measurement": "TGI", "setting": "MALME-3M melanoma", "value": 3.11, "unit": "µM"}, {"measurement": "GI50", "setting": "SF-268 CNS", "value": 5.86, "unit": "µM"}, {"measurement": "TGI", "setting": "SF-268 CNS", "value": 15.9, "unit": "µM"}, {"measurement": "GI50", "setting": "HCT-15 colon", "value": 9.74, "unit": "µM"}, {"measurement": "TGI", "setting": "HCT-15 colon", "value": 23.8, "unit": "µM"}, {"measurement": "GI50", "setting": "KM12 colon", "value": 10.4, "unit": "µM"}, {"measurement": "TGI", "setting": "KM12 colon", "value": 22.3, "unit": "µM"}, {"measurement": "GI50", "setting": "SN12C renal", "value": 14.4, "unit": "µM"}, {"measurement": "TGI", "setting": "SN12C renal", "value": 27.6, "unit": "µM"}, {"measurement": "GI50", "setting": "NCI-H23 lung", "value": 14.5, "unit": "µM"}, {"measurement": "TGI", "setting": "NCI-H23 lung", "value": 27.7, "unit": "µM"}, {"measurement": "GI50", "setting": "MDA-MB-435 melanoma", "value": 11.5, "unit": "µM"}, {"measurement": "TGI", "setting": "MDA-MB-435 melanoma", "value": 24, "unit": "µM"}, {"measurement": "GI50", "setting": "786-0 renal", "value": 6.99, "unit": "µM"}, {"measurement": "TGI", "setting": "786-0 renal", "value": 19.5, "unit": "µM"}, {"measurement": "GI50", "setting": "UACC-62 melanoma", "value": 8.71, "unit": "µM"}, {"measurement": "TGI", "setting": "UACC-62 melanoma", "value": 22, "unit": "µM"}, {"measurement": "GI50", "setting": "MOLT-4 leukemia", "value": 3.21, "unit": "µM"}, {"measurement": "TGI", "setting": "MOLT-4 leukemia", "value": 12.5, "unit": "µM"}, {"measurement": "GI50", "setting": "A549 NSCLC", "value": 12.5, "unit": "µM"}, {"measurement": "TGI", "setting": "A549 NSCLC", "value": 25.5, "unit": "µM"}, {"measurement": "GI50", "setting": "NCI-H226 lung", "value": 4.79, "unit": "µM"}, {"measurement": "TGI", "setting": "NCI-H226 lung", "value": 20.8, "unit": "µM"}, {"measurement": "GI50", "setting": "HS 578T breast", "value": 10.2, "unit": "µM"}, {"measurement": "TGI", "setting": "HS 578T breast", "value": 21.9, "unit": "µM"}, {"measurement": "GI50", "setting": "OVCAR-3 ovarian", "value": 11.6, "unit": "µM"}, {"measurement": "TGI", "setting": "OVCAR-3 ovarian", "value": 23.9, "unit": "µM"}, {"measurement": "GI50", "setting": "SK-MEL-28 melanoma", "value": 5.54, "unit": "µM"}, {"measurement": "TGI", "setting": "SK-MEL-28 melanoma", "value": 10.8, "unit": "µM"}, {"measurement": "GI50", "setting": "SR leukemia", "value": 1.76, "unit": "µM"}, {"measurement": "TGI", "setting": "SR leukemia", "value": 3.56, "unit": "µM"}, {"measurement": "GI50", "setting": "SK-MEL-5 melanoma", "value": 1.74, "unit": "µM"}, {"measurement": "TGI", "setting": "SK-MEL-5 melanoma", "value": 4.28, "unit": "µM"}, {"measurement": "GI50", "setting": "LOX IMVI melanoma", "value": 4.22, "unit": "µM"}, {"measurement": "TGI", "setting": "LOX IMVI melanoma", "value": 15.6, "unit": "µM"}, {"measurement": "GI50", "setting": "SK-OV-3 ovarian", "value": 14.3, "unit": "µM"}, {"measurement": "TGI", "setting": "SK-OV-3 ovarian", "value": 27.4, "unit": "µM"}, {"measurement": "GI50", "setting": "NCI-H522 lung", "value": 12.5, "unit": "µM"}, {"measurement": "TGI", "setting": "NCI-H522 lung", "value": 25.1, "unit": "µM"}, {"measurement": "GI50", "setting": "OVCAR-4 ovarian", "value": 17.2, "unit": "µM"}, {"measurement": "TGI", "setting": "OVCAR-4 ovarian", "value": 31.1, "unit": "µM"}, {"measurement": "GI50", "setting": "U251 glioblastoma", "value": 10.5, "unit": "µM"}, {"measurement": "TGI", "setting": "U251 glioblastoma", "value": 22.4, "unit": "µM"}, {"measurement": "GI50", "setting": "HL-60(TB) leukemia", "value": 3.6, "unit": "µM"}, {"measurement": "TGI", "setting": "HL-60(TB) leukemia", "value": 16.3, "unit": "µM"}, {"measurement": "GI50", "setting": "IGROV1 ovarian", "value": 7.37, "unit": "µM"}, {"measurement": "TGI", "setting": "IGROV1 ovarian", "value": 19.9, "unit": "µM"}]}]}
